According to patent US11661437B2, “Steroid derivative regulators, method for preparing the same, and uses thereof” (priority 2018, dated 2023):

tested on: GABA-A receptor; experiment: 35S-TBPS binding assay on rat cerebral cortex cell membrane; parameters: species or system Sprague-Dawley rat; conditions: 2 nM 35S-TBPS, GABA added, read-out: 35S-TBPS bindng test, IC50 on inhibiting the TBPS binding activity
Description: 1.2.1 Extraction of Cerebral Cortex Cell Membrane:
1. The cerebral cortex of male Sprague-Dawley rat was isolated.
2. A pre-chilled 0.32 M sucrose solution (one tablet of protease inhibitor was added per 100 ml) was added to the cerebral cortex (the volume of sucrose solution was 10 times the volume of the cerebral cortex). The mixture was crushed with a 50 ml glass tissue homogenizer in batches and mixed well.
3. The mixture was centrifuged at 1500 g, 4° C. for 10 minutes, and the supernatant was collected.
4. The mixture was centrifuged at 20000 g, 4° C. for 30 minutes, and the supernatant was discarded.
5. The precipitate was resuspended with the pre-chilled phosphate buffer saline (PBS) (one tablet of protease inhibitor was added per 100 ml). An average of 4 ml of PBS was added per rat, and the mixture was mixed well with a glass tissue homogenizer.
6. The mixture was centrifuged at 10000 g, 4° C. for 10 minutes, and the supernatant was discarded.
7. Steps 5 and 6 were repeated three times.
8. Finally, the precipitate was resuspended with 4 volumes of PBS. The resulting solution was dispensed, frozen in liquid nitrogen, and stored at −80° C.
9. The protein concentration was measured by the bicinchoninic acid (BCA) method.
1.2.2 ^35S-TBPS Binding Assay
1. 230 μL of PBS was added to each well of a well plate with 1.1 ml volume.
2. 60 μL of the cerebral cortex cell membrane (5 μg/μL) solution was added to each well, and the mixture was mixed well.
3. The test compound (3 μL per well) was added, and the plate was incubated at 25° C. for 5 minutes. The DMSO concentration was 1%. The initial compound concentration was 1 NM, and a 3-fold dilution in gradient was carried out to obtain a total of 8 gradients and 2 replicates. 1% DMSO was used as a negative control, and 10 μM P026-2 was used as a positive control.
4. GABA was added at a final concentration of […], and incubated at 25° C. for 5 minutes. 1 mM GABA solution was formulated, and 1.5 μL of the solution was added to each well.
5. ^35S-TBPS was added at a final concentration of 2 nM. The concentration of isotope mother solution was 9.7 μM. After dilution with PBS for 100 times, 6 μL of the diluted isotope solution was added to each well.
6. The plate was incubated at 4° C. for 20 hours.
7. The FilterMate GF/C plate was pre-treated with 0.5% PEI, and incubated at 4° C. for 1 hour.
8. The FilterMate GF/C plate was washed with Universal Harvester twice, 50 ml PBS each time.
9. The reaction solution was transferred to the GF/C plate, and each well was washed 4 times with 900 μL PBS.
10. The washed GF/C plate was placed at 55° C. and dried for 10 minutes.
11. 40 μL of scintillation solution was added to each well, and the CPM value was read with TopCount.
1.2.3 Experimental Data Processing Method:
In the experiment, the CPM (counts per minute) value was read with TopCount. According to the readings of the High control (DMSO) and the Low control (10 μM of the positive compound) experimental groups, the % inhibition was calculated based on the following formula: % Inhibition=100×(CPMHigh control−CPMSample)/(CPMHigh control−CPMLow control)
The IC50 of the compound was calculated according to the following 4-parameter nonlinear logic formula: Y=Bottom+(Top−Bottom)/(1+10^((Log IC50−X)*Hill Slope)),
The effect of the compound of the present invention on the TBPS binding activity was determined by the above test, and the measured IC50 values are shown in Table 1.

SMILES	IC50 [nM]
C[C@@]1(O)CC[C@@]2(F)[C@H](CC[C@H]3[C@@H]4CC[C@H](C(=O)Cn5cc6ccncc6n5)[C@@]4(C)CC[C@@H]32)C1 [Example 16, 1-((3R,5R,8S,9S,10R,13S,14S,17S)-10-Fluoro-3-hydroxy-3,13-dimethylhexadecahydro-1H-cyclopenta[a]phenanthren-17-yl)-2-(2H-pyrazolo[3,4-c]pyridin-2-yl)ethan-1-one]	40
C[C@@]1(O)CC[C@@]2(F)[C@H](CC[C@H]3[C@@H]4CC[C@H](C(=O)Cn5nccn5)[C@@]4(C)CC[C@@H]32)C1 [Example 10, 1-((3R,5R,8S,9S,10R,13S,14S,17S)-10-Fluoro-3-hydroxy-3,13-dimethylhexadecahydro-1H-cyclopenta[a]phenanthren-17-yl)-2-(2H-1,2,3-triazol-2-yl)ethan-1-one]	5.3
C[C@]1(O)CC[C@@]2(F)[C@H](CC[C@H]3[C@@H]4CC[C@H](C(=O)CNS(=O)(=O)c5ccccc5)[C@@]4(C)CC[C@@H]32)C1 [Example 71, N-(2-((3S,5R,8S,9S,10R,13S,14S,17S)-10-Fluoro-3-hydroxy-3,13-dimethylhexadecahydro-1H-cyclopenta[a]phenanthren-17-yl)-2-oxoethyl)benzenesulfonamide]	49
CSc1cnn(CC(=O)[C@H]2CC[C@H]3[C@@H]4CC[C@@H]5C[C@](C)(O)CC[C@]5(F)[C@H]4CC[C@]23C)c1 [Example 55, 1-((3R,5R,8S,9S,10R,13S,14S,17S)-10-Fluoro-3-hydroxy-3,13-dimethylhexadecahydro-1H-cyclopenta[a]phenanthren-17-yl)-2-(4-(methylthio)-1H-pyrazol-1-yl)ethan-1-one]	42.5
C[C@@]1(O)CC[C@]2(F)C3CC[C@]4(C)[C@@H](C(=O)Cn5cc(C6CC6)nn5)CC[C@H]4[C@@H]3CC[C@@H]2C1 (stereo partly drawn) [Example 64, 2-(4-Cyclopropyl-1H-1,2,3-triazol-1-yl)-1-((3R,5R,8S,10R,13S,14S,17S)-10-fluoro-3-hydroxy-3,13-dimethylhexadecahydro-1H-cyclopenta[a]phenanthren-17-yl)ethan-1-one]	24.8
C[C@@]1(O)CC[C@@]2(F)[C@H](CC[C@H]3[C@@H]4CC[C@H](C(=O)Cn5nc6ccccc6n5)[C@@]4(C)CC[C@@H]32)C1 [Example 14, 2-(2H-Benzo[d][1,2,3]triazol-2-yl)-1-((3R,5R,8S,9S,10R,13S,14S,17S)-10-fluoro-3-hydroxy-3,13-dimethylhexadecahydro-1H-cyclopenta[a]phenanthren-17-yl)ethan-1-one]	10.4
C[C@@]1(O)CC[C@@]2(F)[C@H](CC[C@H]3[C@@H]4CC[C@H](C(=O)Cn5cc(C#N)c(C6CC6)n5)[C@@]4(C)CC[C@@H]32)C1 [Example 40, 3-Cyclopropyl-1-(2-((3R,5R,8S,9S,10R,13S,14S,17S)-10-fluoro-3-hydroxy-3,13-dimethylhexadecahydro-1H-cyclopenta[a]phenanthren-17-yl)-2-oxoethyl)-1H-pyrazole-4-carbonitrile]	12
C[C@@]1(O)CC[C@@]2(F)[C@H](CC[C@H]3[C@@H]4CC[C@H](C(=O)CNc5cccc(F)c5)[C@@]4(C)CC[C@@H]32)C1 [Example 25, 1-((3R,5R,8S,9S,10R,13S,14S,17S)-10-Fluoro-3-hydroxy-3,13-dimethylhexadecahydro-1H-cyclopenta[a]phenanthren-17-yl)-2-((3-fluorophenyl)amino)ethan-1-one]	6.7
COc1ccc2nn(CC(=O)[C@H]3CC[C@H]4[C@@H]5CC[C@@H]6C[C@](C)(O)CC[C@]6(F)[C@H]5CC[C@]34C)nc2c1 [Example 46, 1-((3R,5R,8S,9S,10R,13S,14S,17S)-10-Fluoro-3-hydroxy-3,13-dimethylhexadecahydro-1H-cyclopenta[a]phenanthren-17-yl)-2-(5-methoxy-2H-benzo[d][1,2,3]triazol-2-yl)ethan-1-one]	5.6
C[C@@]1(O)CC[C@@]2(F)[C@H](CC[C@H]3[C@@H]4CC[C@H](C(=O)Cn5cc6c(n5)CCCC6)[C@@]4(C)CC[C@@H]32)C1 [Example 21, 1-((3R,5R,8S,9S,10R,13S,14S,17S)-10-Fluoro-3-hydroxy-3,13-dimethylhexadecahydro-1H-cyclopenta[a]phenanthren-17-yl)-2-(4,5,6,7-tetrahydro-2H-indazol-2-yl)ethan-1-one]	36.1
C[C@@]1(O)CC[C@@]2(F)[C@H](CC[C@H]3[C@@H]4CC[C@H](C(=O)COc5ccc(C#N)cc5F)[C@@]4(C)CC[C@@H]32)C1 [Example 31, 3-Fluoro-4-(2-((3R,5R,8S,9S,10R,13S,14S,17S)-10-fluoro-3-hydroxy-3,13-dimethylhexadecahydro-1H-cyclopenta[a]phenanthren-17-yl)-2-oxoethoxy)benzonitrile]	11.1
CCOC(=O)c1cnn(CC(=O)[C@H]2CC[C@H]3[C@@H]4CC[C@@H]5C[C@](C)(O)CC[C@]5(F)[C@H]4CC[C@]23C)c1 [Example 59, Ethyl 1-(2-((3R,5R,8S,9S,10R,13S,14S,17S)-10-fluoro-3-hydroxy-3,13-dimethylhexadecahydro-1H-cyclopenta[a]phenanthren-17-yl)-2-oxoethyl)-1H-pyrazole-4-carboxylate]	9.4
C[C@@]1(O)CC[C@@]2(F)[C@H](CC[C@H]3[C@@H]4CC[C@H](C(=O)Cn5nnc6ccccc65)[C@@]4(C)CC[C@@H]32)C1 [Example 15, 2-(1H-Benzo[d][1,2,3]triazol-1-yl)-1-((3R,5R,8S,9S,10R,13S,14S,17S)-10-fluoro-3-hydroxy-3,13-dimethylhexadecahydro-1H-cyclopenta[a]phenanthren-17-yl)ethan-1-one]	8.7
C[C@@]1(O)CC[C@]2(F)C3CC[C@]4(C)[C@@H](C(=O)Cn5ncc(C6CC6)n5)CC[C@H]4[C@@H]3CC[C@@H]2C1 (stereo partly drawn) [Example 63, 2-(4-Cyclopropyl-2H-1,2,3-triazol-2-yl)-1-((3R,5R,8S,10R,13S,14S,17S)-10-fluoro-3-hydroxy-3,13-dimethylhexadecahydro-1H-cyclopenta[a]phenanthren-17-yl)ethan-1-one]	25.8
C[C@@]1(O)CC[C@@]2(F)[C@H](CC[C@H]3[C@@H]4CC[C@H](C(=O)COc5cncnc5)[C@@]4(C)CC[C@@H]32)C1 [Example 49, 1-((3R,5R,8S,9S,10R,13S,14S,17S)-10-Fluoro-3-hydroxy-3,13-dimethylhexadecahydro-1H-cyclopenta[a]phenanthren-17-yl)-2-(pyrimidin-5-yloxy)ethan-1-one]	48
